# Tested on: GIRK currents
# Test: patch-clamp controls: inhibition of the activated GIRK currents
# Format: cell-based, human
# Description: HEK 293 cells expressing HKIR3.1/3.2 channel and human somatostatin receptor 2 were treated with these compounds, and whole cell patch-clamp current recordings taken. […] Cell Culture
# Whole cell patch-clamp current recordings were performed with an Axopatch 200B amplifier (Axon Instruments) using fire-polished pipettes with a resistance of 3-4 MS pulled from filamented borosilicated glass capillaries (Harvard Apparatus, 1.5 mm OD×1.17 mm ID). Data was acquired and analysed via a Digidata 1322A interface (Axon Instruments) and pCLAMP software (version 8.1, Axon Instruments). A fast perfusion system was used to apply somatostatin and analogues (Rapid Solution Changer, RSC-160, Bio-Logic France). Cells were clamped at −60 mV. The extracellular solution was (mM): NaCl 80, KCl 60, CaCl2 2, MgCl2 1, HEPES 10, NaH2PO4 0.33, glucose 10, pH 7.4; while the intracellular solution was (mM): K gluconate 110, KCl 20, NaCl 10, MgCl2 1, MgATP 2, EGTA 2 GTP 0.3, pH 7.4. After agonist application, current activated with a delay “lag” followed by a rapid rise to peak amplitude “time to peak”. After removal of the agonist, the current decays back to baseline. For each cell it was assessed if flow artifacts resulting from the pressure of drug application were present. This was done by applying bath solution from one of the sewer pipes at the beginning of the recordings. […]
Substance,"GIRK currents after treatment of cells with Pertussis toxin (control) (pertussis toxin 100 ng/ml, cells incubated overnight)",GIRK currents after GIRK inhibitor Tertiapin Q (control) (Tertiapin 100 nM)
Pertussis toxin,currents were largely inhibited,–
Tertiapin Q,–,currents were largely inhibited

# Reference: patent US10548982B2, “Reversible covalent linkage of functional molecules” (priority 2009, dated 2020)
